Drawing on patent publication US8569281B2, “Compounds and their administration for treating a neurodegenerative disease as well as a method for identifying a compound capable of inhibiting a kinase, such as LRRK” (Medical Research Council Technology, priority 2010, dated 2013), this text covers Ki for 28 molecules.

Where two headings read alike, the source gives them in different places.

For this experiment, the target named is LRRK2 (Homo sapiens (Human), UniProt Q5S007). The experiment can be described thus: In Vitro LRRK2 Assay (LabChip 3000, fluorescently-labeled peptide substrate). Particulars: read-out: Ki (μM), affinity values for LRRK2. The format is biochemical. As to the method:
This assay was used to determine a compound's potency in inhibiting activity of LRRK2 by determining, Kiapp, IC50, or percent inhibition values. In a polypropylene plate, LRRK2, fluorescently-labeled peptide substrate, ATP and test compound were incubated together. Using a LabChip 3000 (Caliper Life Sciences), after the reaction the substrate was separated by capillary electrophoresis into two populations: phosphorylated and unphosphorylated. The relative amounts of each were quantitated by fluorescence intensity. LRRK2 Ki was determined according to the equation: Y=V0*(1−((x+Ki*(1+S/Km)+Et)/(2*Et)−(((x+Ki*(1+S/Km)+Et)^2−(4*Et*x))^0.5)/(2*Et))).
Ki values in Table 4 and elsewhere herein are shown in μM.
Assay conditions and materials used were as follows:
Compound Plate Preparation:
For serial dilutions, 34.6 μl DMSO was added to columns 3-24.
Total and Blank Preparation:
In Complete Reaction Buffer, substrate was diluted to 4 μM. Equal volumes of Complete Reaction Buffer and 4 μM substrate were combined to obtain the blank. Equal volumes of Complete Reaction Buffer and 4 μM substrate were combined and to the combined solution was added 2× final LRRK2 concentration.
To a 50 μl polypropylene plate, 5 μl/well buffer/substrate was added by hand to Blank wells. A Biomek FX was used to start the kinase reaction (“PLK SAR 23 ATP”). The following were added to the appropriate wells: • 2 μl compound+23 μl ATP; • 5 μl/well compound/ATP in Assay Plate; • 5 μl/well kinase/substrate in Assay Plate;
The plate was incubated for 2 hours in the dark. Biomek FX was used to stop the kinase reaction (“PLK Stop”), and 10 μl/well Stop solution was added to the Assay Plate. Results were read on the LabChip 3000.
The LabChip 3000 was run using the job “LRRK2 IC50” with the following job settings: • Pressure: −1.4 psi • Downstream voltage: −500 V • Upstream voltage: −2350 V • Post sample buffer sip time: 75 seconds • Post dye buffer sip time: 75 seconds • Final delay time: 200 seconds Parkinson's Disease Animal Model

[1] abbreviates: ATP 130 μM, substrate 1 μM, 2 hours, ambient temperature, LRRK2 variant not given.

The Ki is the equilibrium dissociation constant of an inhibitor or competing ligand from its target.

Sequence of LRRK2 (Q5S007 whole entry G2019S): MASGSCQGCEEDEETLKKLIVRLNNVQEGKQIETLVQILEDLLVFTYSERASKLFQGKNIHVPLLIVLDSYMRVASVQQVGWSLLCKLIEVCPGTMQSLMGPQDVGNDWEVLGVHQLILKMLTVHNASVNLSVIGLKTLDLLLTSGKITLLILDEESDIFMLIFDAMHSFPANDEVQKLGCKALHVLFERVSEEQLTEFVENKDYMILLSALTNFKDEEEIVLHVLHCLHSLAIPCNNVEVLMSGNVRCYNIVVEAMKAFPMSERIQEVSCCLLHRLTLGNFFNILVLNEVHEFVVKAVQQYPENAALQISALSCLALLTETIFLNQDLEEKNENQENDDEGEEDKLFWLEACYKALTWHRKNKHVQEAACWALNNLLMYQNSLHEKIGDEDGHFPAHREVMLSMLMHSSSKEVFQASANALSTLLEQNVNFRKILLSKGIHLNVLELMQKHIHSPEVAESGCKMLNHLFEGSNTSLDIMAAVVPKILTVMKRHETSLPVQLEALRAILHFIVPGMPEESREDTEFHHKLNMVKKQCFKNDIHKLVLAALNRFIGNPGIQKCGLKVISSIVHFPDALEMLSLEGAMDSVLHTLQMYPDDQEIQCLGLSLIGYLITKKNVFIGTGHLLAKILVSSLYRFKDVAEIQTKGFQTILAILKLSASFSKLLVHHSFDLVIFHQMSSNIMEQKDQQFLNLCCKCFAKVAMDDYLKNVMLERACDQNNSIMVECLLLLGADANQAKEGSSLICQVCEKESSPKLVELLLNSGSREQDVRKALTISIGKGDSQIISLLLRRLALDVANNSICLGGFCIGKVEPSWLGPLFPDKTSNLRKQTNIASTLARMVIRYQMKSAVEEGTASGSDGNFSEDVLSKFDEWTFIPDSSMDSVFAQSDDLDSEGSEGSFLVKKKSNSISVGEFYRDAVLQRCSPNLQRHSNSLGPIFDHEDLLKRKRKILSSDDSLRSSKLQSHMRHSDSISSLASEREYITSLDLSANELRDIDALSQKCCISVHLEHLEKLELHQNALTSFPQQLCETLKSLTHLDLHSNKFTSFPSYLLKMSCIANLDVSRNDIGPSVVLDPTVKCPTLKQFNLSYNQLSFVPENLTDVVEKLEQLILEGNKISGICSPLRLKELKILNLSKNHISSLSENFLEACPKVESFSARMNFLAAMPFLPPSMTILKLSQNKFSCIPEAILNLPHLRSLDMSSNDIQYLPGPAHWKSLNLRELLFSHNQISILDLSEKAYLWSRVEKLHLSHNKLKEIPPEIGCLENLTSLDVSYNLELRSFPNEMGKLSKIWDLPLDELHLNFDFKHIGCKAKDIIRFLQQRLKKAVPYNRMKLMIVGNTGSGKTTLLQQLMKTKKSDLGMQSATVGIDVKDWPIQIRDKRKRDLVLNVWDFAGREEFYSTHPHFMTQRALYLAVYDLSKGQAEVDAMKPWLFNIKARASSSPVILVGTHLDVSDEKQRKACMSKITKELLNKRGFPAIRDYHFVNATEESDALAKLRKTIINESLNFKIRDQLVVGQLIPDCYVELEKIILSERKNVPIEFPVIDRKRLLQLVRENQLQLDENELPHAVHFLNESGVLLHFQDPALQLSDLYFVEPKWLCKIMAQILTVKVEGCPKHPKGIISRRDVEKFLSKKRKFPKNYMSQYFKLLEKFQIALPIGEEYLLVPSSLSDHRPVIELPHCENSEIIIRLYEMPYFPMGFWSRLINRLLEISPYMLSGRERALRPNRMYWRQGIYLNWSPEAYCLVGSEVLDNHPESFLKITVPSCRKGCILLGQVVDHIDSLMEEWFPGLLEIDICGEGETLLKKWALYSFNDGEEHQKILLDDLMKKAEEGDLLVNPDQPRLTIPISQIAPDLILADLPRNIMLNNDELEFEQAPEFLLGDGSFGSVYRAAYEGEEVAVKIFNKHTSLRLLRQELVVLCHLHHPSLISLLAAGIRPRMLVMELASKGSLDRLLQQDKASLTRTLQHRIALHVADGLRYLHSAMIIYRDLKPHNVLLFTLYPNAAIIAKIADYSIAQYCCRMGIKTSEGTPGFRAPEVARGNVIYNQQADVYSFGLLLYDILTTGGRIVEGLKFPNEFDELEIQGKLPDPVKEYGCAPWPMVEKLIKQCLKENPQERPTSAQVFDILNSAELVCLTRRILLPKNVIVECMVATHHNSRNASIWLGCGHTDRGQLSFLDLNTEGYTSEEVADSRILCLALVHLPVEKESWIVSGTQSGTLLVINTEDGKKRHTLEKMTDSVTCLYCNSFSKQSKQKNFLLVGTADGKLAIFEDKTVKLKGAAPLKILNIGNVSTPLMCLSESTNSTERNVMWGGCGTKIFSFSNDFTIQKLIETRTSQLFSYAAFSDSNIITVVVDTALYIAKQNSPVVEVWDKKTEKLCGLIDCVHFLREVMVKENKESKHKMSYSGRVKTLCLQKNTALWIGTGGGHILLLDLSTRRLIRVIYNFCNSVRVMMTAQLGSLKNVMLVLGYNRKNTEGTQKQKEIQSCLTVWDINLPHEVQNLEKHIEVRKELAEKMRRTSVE

Consider “3-(1-((2,2-difluorocyclopropyl)methyl)-1H-benzo[d]imidazol-5-yl)-4-(tetrahydro-2H-pyran-4-yloxy)-1H-pyrazolo[4,3-c]pyridine [Example 127]”, for which the inhibitory constant (Ki) under setting [1] was 0.023 µM.

Turning to “3-(1-(Oxetan-3-yl)-1H-benzo[d]imidazol-6-yl)-4-(tetrahydro-2H-pyran-4-yloxy)-1H-pyrazolo[4,3-c]pyridine [Example 124]”, the Ki came out at 0.019 µM.

Consider “3-(1-(oxetan-3-yl)-1H-benzo[d]imidazol-5-yl)-4-(tetrahydro-2H-pyran-4-yloxy)-1H-pyrazolo[4,3-c]pyridine [Example 125]”, for which the inhibitory constant (Ki) amounted to 0.056 µM.

In the case of “3-(1-isopropyl-1H-benzo[d]imidazol-5-yl)-4-(tetrahydro-2H-pyran-4-yloxy)-1H-pyrazolo[4,3-c]pyridine [Example 123]”, the Ki under setting [1] came out at 0.02 µM.

Take `CC1CCCN(C(=O)CCc2[nH]nc3ccnc(NC4CCOCC4)c23)C1` (stereo in doubt) [Example 2, 1-[(3R)-3-methylpiperidin-1-yl]-3-[4-(tetrahydro-2H-pyran-4-ylamino)-1H-pyrazolo-[4,3-c]pyridin-3-yl]propan-1-one]: the Ki under setting [1] is 0.034 µM.

Consider `O=C(CCc1[nH]nc2ccnc(OC3CCCCC3)c12)N1CCC[C@H](c2ccccc2)C1` [Example 6, 3-[4-(Cyclohexyloxy)-1H-pyrazolo[4,3-c]pyridin-3-yl]-1-[(3R)-3-phenylpiperidin-1-yl]propan-1-one], for which the Ki under setting [1] came out at 0.014 µM.

As for `O=C(c1ccc(CCc2n[nH]c3ccnc(NC4CCCCC4)c23)cc1)N1CCN(C2CC2)CC1` [Example 8, (4-{2-[4-(Cyclohexylamino)-1H-pyrazolo[4,3-c]pyridin-3-yl]ethyl}phenyl)(4-cyclopropylpiperazin-1-yl)methanone], under setting [1], the Ki turned out to be 0.017 µM.

On to `c1cc(-c2n[nH]c3ccnc(NC4CCOCC4)c23)cc(N2CCOCC2)n1` [Example 9, 3-[2-(Morpholin-4-yl)pyridin-4-yl]-N-(tetrahydro-2H-pyran-4-yl)-1H-pyrazolo[4,3-c]pyridin-4-amine], for which the Ki under setting [1] worked out at 0.027 µM.

For the molecule `CN1CCN(c2cc(-c3n[nH]c4ccnc(OC5CCOCC5)c34)ccn2)CC1` [Example 14, 3-[2-(4-Methylpiperazin-1-yl)pyridin-4-yl]-4-(tetrahydro-2H-pyran-4-yloxy)-1H-pyrazolo[4,3-c]pyridine], the Ki under setting [1] worked out at 0.006 µM.

As to `c1cc2n[nH]c(C3CC3)c2c(OC2CCCCC2)n1` [Example 26, 4-(Cyclohexyloxy)-3-cyclopropyl-1H-pyrazolo[4,3-c]pyridine], the Ki under setting [1] amounted to 0.024 µM.

With `c1cc2n[nH]c(C3CC3)c2c(OC2CCOCC2)n1` [Example 28, 3-Cyclopropyl-4-(tetrahydro-2H-pyran-4-yloxy)-1H-pyrazolo[4,3-c]pyridine], the Ki under setting [1] came to 0.035 µM.

`CC[C@@H](C)Oc1nccc2[nH]nc(C3CC3)c12` [Example 29, 3-Cyclopropyl-4-[(2R)-butan-2-yloxy)-1H-pyrazolo[4,3-c]pyridine]: under setting [1], the Ki stood at 0.078 µM.

Take `Cc1[nH]nc2ccnc(OC3CCOC3)c12` (stereo not shown) [Example 31]: under setting [1], the Ki stood at 0.158 µM.

Turning to `c1coc(-c2n[nH]c3ccnc(OC4CCOCC4)c23)c1` [Example 37, 3-(Furan-2-yl)-4-(tetrahydro-2H-pyran-4-yloxy)-1H-pyrazolo[4,3-c]pyridine], under setting [1], the Ki is 0.132 µM.

As to `c1cc2[nH]nc(-c3cnn(C4CCCC4)c3)c2c(OC2CCOCC2)n1` [Example 39, 3-(1-Cyclopentyl-1H-pyrazol-4-yl)-4-(tetrahydro-2H-pyran-4-yloxy)-1H-pyrazolo[4,3-c]pyridine], under setting [1], the Ki amounted to 0.006 µM.

With `c1cc2[nH]nc(-c3cnn(CC4CCC4)c3)c2c(OC2CCCCC2)n1` [Example 41, 3-[1-(Cyclobutylmethyl)-1H-pyrazol-4-yl]-4-(cyclohexyloxy)-1H-pyrazolo[4,3-c]pyridine], the Ki under setting [1] worked out at 0.055 µM.

For `Cn1cc(/C=C/c2n[nH]c3ccnc(OC4CCCCC4)c23)cn1` [Example 52, 4-(Cyclohexyloxy)-3-[(E)-2-(1-methyl-1H-pyrazol-4-yl)ethenyl]-1H-pyrazolo[4,3-c]pyridine], the Ki under setting [1] is 0.0003 µM.

As to `CC(C)Oc1nccc2[nH]nc(-c3cc(C(=O)N(C)C)n(C(C)C)c3)c12` [Example 54, 4-(4-isopropoxy-1H-pyrazolo[4,3-c]pyridine-3-yl)-1-isopropyl-N,N-dimethyl-1H-pyrrole-2-carboxamide], the Ki under setting [1] came to 0.018 µM.

On to `CC(C)Oc1nccc2[nH]nc(-c3cc(C(=O)N4CCCCC4)n(C(C)C)c3)c12` [Example 56, (4-(4-Isopropoxy-1H-pyrazolo[4,3-c]pyridin-3-yl)-1-isopropyl-1H-pyrrol-2-yl)(piperidin-1-yl)methanone], for which the inhibition constant (Ki) under setting [1] came out at 0.019 µM.

Consider `CC(C)Oc1nccc2[nH]nc(-c3cc(C(=O)N4CCOCC4)n(C(C)C)c3)c12` [Example 57, (4-(4-Isopropoxy-1H-pyrazolo[4,3-c]pyridin-3-yl)-1-isopropyl-1H-pyrrol-2-yl)(morpholino)methanone], for which the Ki under setting [1] amounted to 0.019 µM.

In the case of `CC(C)Oc1nccc2[nH]nc(-c3cc(C(=O)NC4COC4)n(C(C)C)c3)c12` [Example 59, 4-(4-Isopropoxy-1H-pyrazolo[4,3-c]pyridin-3-yl)-1-isopropyl-N-(oxetan-3-yl)-1H-pyrrole-2-carboxamide], under setting [1], the Ki came out at 0.0024 µM.

Turning to `COc1nccc2[nH]nc(-c3cc(C(=O)N(C)C)n(C(C)C)c3)c12` [Example 61, 1-Isopropyl-4-(4-methoxy-1H-pyrazolo[4,3-c]pyridin-3-yl)-N,N-dimethyl-1H-pyrrole-2-carboxamide], the Ki under setting [1] was 0.077 µM.

Regarding `COc1nccc2[nH]nc(-c3cc(C(=O)NC4COC4)n(C(C)C)c3)c12` [Example 64, 1-isopropyl-4-(4-methoxy-1H-pyrazolo[4,3-c]pyridin-3-yl)-N-(oxetan-3-yl)-1H-pyrrole-2-carboxamide], under setting [1], the Ki was 0.014 µM.

With `CC(C)n1cc(-c2n[nH]c3ccnc(OC4CCOCC4)c23)cc1C(=O)N1CCOCC1` [Example 65, (1-isopropyl-4-(4-(tetrahydro-2H-pyran-4-yloxy)-1H-pyrazolo[4,3-c]pyridin-3-yl)-1H-pyrrol-2-yl)(morpholino)methanone], the Ki under setting [1] was determined as 0.039 µM.

Regarding `CC(C)n1cc(-c2n[nH]c3ccnc(OC4CCOCC4)c23)cc1C(=O)N(C)C` [Example 66, 1-isopropyl-N,N-dimethyl-4-(4-(tetrahydro-2H-pyran-4-yloxy)-1H-pyrazolo[4,3-c]pyridin-3-yl)-1H-pyrrole-2-carboxamide], the Ki under setting [1] was 0.045 µM.

`CC(C)n1cc(-c2n[nH]c3ccnc(OC4CCOCC4)c23)cc1C(=O)NC1COC1` [Example 70, 1-isopropyl-N-(oxetan-3-yl)-4-(4-(tetrahydro-2H-pyran-4-yloxy)-1H-pyrazolo[4,3-c]pyridin-3-yl)-1H-pyrrole-2-carboxamide]: the inhibition constant Ki under setting [1] was found to be 0.003 µM.

`O=C(c1cc(-c2n[nH]c3ccnc(OC4CCOCC4)c23)ccn1)N1CCOCC1` [Example 73, Morpholino(4-(4-(tetrahydro-2H-pyran-4-yloxy)-1H-pyrazolo[4,3-c]pyridin-3-yl)pyridin-2-yl)methanone]: the Ki under setting [1] worked out at 0.221 µM.

As to `FC(F)(F)COc1nccc2[nH]nc(-c3ccnc(N4CCOCC4)c3)c12` [Example 74, 4-(4-(4-(2,2,2-Trifluoroethoxy)-1H-pyrazolo[4,3-c]pyridin-3-yl)pyridin-2-yl)morpholine], the Ki under setting [1] was determined as 0.031 µM.
